Assay results from patent US9850282B2, “Stable pentadecapeptide salts, a process for preparation thereof, a use thereof in the manufacture of pharmaceutical preparations and a use thereof in therapy” (priority 2013, dated 2017).
Read-outs that look alike come from different tables or passages of the source. No end group written: not given here.

Assays:
[1] = intravenously, orally or intraperitoneally, 10 ng to 100 mg/kg; cited from earlier work
[2] = simulated gastric fluid, 37° C.
in vitro = conditions: artificial gastric juice with pepsin, 37° C.
[3] = 37° C.; for Pentadecapeptide content decrement (rel. %) in gastric juice at pH = 2.0, 1.5 hours: 90 min; for Pentadecapeptide content decrement (rel. %) in gastric juice at pH = 2.0, 2.5 hours: 150 min; for Pentadecapeptide content decrement (rel. %) in gastric juice at pH = 4.0, 6 hours: 360 min; for Pentadecapeptide content decrement (rel. %) in gastric juice at pH = 4.0, 7 hours: 420 min; for Pentadecapeptide content decrement (rel. %) in gastric juice at pH = 4.0, 8 hours: 480 min
[4] = Bleeding and thrombocytopenia after amputation; assay type: in vivo, rats; conditions: bepecin by itself
Description: Bepecin was administered intraperitoneally, intravenously or intragastrically (10 μg/kg, 10 ng/kg body weight).

[5] = Anaphylactoid reaction induced by dextran and/or egg white; assay type: in vivo, rats, mouse; conditions: dextran and/or egg white i.v.; bepecin 10 μg, 1 μg, 10 ng, 10 pg/kg; clomipramine 20 mg/kg, cimetidine 10 mg/kg alone
[6] = Accelerated ageing at 50° C. and relative humidity of 65%; assay type: physicochemical
[7] = Stability in water solutions (1 g/100 ml) at 50° C.; assay type: physicochemical; conditions: for Pentadecapeptide content decrement in water at 50° C./time (hours): 20: 20 hours; for Pentadecapeptide content decrement in water at 50° C./time (hours): 65: 65 hours; for Pentadecapeptide content decrement in water at 50° C./time (hours): 148: 148 hours; for Pentadecapeptide content decrement in water at 50° C./time (hours): 388: 388 hours; for Pentadecapeptide content decrement in water at 50° C./time (hours): start/0: start/0 hours
Description: (§1) This addition will be in the range from 0.5 mg to 3.0 mg per 1 mg of bepecin. […] The stability of bepecin salt with L-arginine in water solutions was determined after incubation of aqueous salt solutions in concentration 1 g/100 ml, at 50° C., and in a separate test in very stringent conditions: at 100° C., where the decomposition was determined after one hour.

[8] = 1 g/100 ml of water, 20° C., 253.7 nm, 70 min
[9] = Stability in water at 100° C., 1 hour; assay type: physicochemical
Description: as §1

Acute toxicity = assay type: in vivo, Wistar Albino rats; conditions: 1 g/kg body weight, intraperitoneally, intravenously or intragastrically
[10] = Collateral vessel presentation after femoral artery removal; assay type: in vivo, rats; conditions: 5-10 min after removal of femoral artery part; local 1 min bath (bepecin 10 μg/kg, L-arginine 100 mg/kg, L-NAME 5 mg/kg)
Excerpt: Bepecin has a particular beneficial effect after large blood vessel removal. Unlike L-NAME and L-arginine, bepecin rapidly bridges defect between the stumps of the vessel, thus even in the case of the worst scenario, rapidly reorganizing blood supply. Part of femoral artery in rats (between a. epigastrica caudalis and a. femoralis circumflexa lateralis) was removed in order to investigate collateral vessel presentation within vascular defect following formation of critical size vascular defect. Collateral vessel presentation within vascular defect was assessed according to the method described for microangiographic assessment in Cardiovasc Res. 1997 September; 35(3): 547-52. Thermographic imaging was performed using an infrared camera.

HSV-1 and HSV-2 = test: Newborn mice, intracerebral inoculation with HSV-1 and HSV-2; assay type: in vivo; conditions: lethally infected newborn mice; agents applied 48 or 72 hours after viral infection; bepecin 10 and 100 μg/kg, acyclovir 10 and 100 mg/kg
[11] = pH 2, Pentadecapeptide content decrement (rel. %) in gastric juice at pH = 2.0, 1.0 hours, pH 2.0, 1.0 h
[12] = pH 2, Pentadecapeptide content decrement (rel. %) in gastric juice at pH = 2.0, 2.0 hours, pH 2.0, 2.0 h
[13] = pH 4, Pentadecapeptide content decrement (rel. %) in gastric juice at pH = 4.0, 3 hours, pH 4.0, 3 h
[14] = pH 2, Pentadecapeptide content decrement (rel. %) in gastric juice at pH = 2.0, 0.5 hours, pH 2.0
[15] = pH 3, Pentadecapeptide content decrement (rel. %) in gastric juice at pH = 3.0, 0.5 hours, pH 3.0
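Throughout, for Pentadecapeptide content decrement (rel. %) in gastric juice at pH = 2.0, 0 hours: peptide salt at 10 mg/5 ml incubated in artificial gastric juice (HCl, NaCl, pepsin 1.0 g/l) at the listed pH and 37° C, peptide content tracked over time.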
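Throughout, for Pentadecapeptide content decrement (rel. %) in gastric juice at pH = 2.0, 1.5 hours: peptide salt at 10 mg/5 ml incubated in artificial gastric juice (HCl, NaCl, pepsin 1.0 g/l) at the listed pH and 37° C, peptide content tracked over time.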
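Throughout, for Pentadecapeptide content decrement (rel. %) in gastric juice at pH = 2.0, 2.5 hours: peptide salt at 10 mg/5 ml incubated in artificial gastric juice (HCl, NaCl, pepsin 1.0 g/l) at the listed pH and 37° C, peptide content tracked over time.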
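Throughout, for Pentadecapeptide content decrement (rel. %) in gastric juice at pH = 3.0, 0 hours: peptide salt at 10 mg/5 ml incubated in artificial gastric juice (HCl, NaCl, pepsin 1.0 g/l) at the listed pH and 37° C, peptide content tracked over time.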

For “Gly Glu Pro Pro Pro Gly Lys Pro Ala Asp Asp Ala Gly Leu Val (GEPPPGKPADDAGLV; also: salts with basic amino acids) [Peptide bepecin]”, the “Toxic changes (LD50, acute, subchronic and chronic toxicity)” value [1] is given as “did not induce any toxic changes”.

With GEPPPGKPADDAGLV [BPC acetate] the remaining at 1 h [2, 11] was 8.2%, the remaining at 2 h [2, 12] was 2.46% and the remaining at 3 h ([2]; pH 3, Pentadecapeptide content decrement (rel. %) in gastric juice at pH = 3.0, 3.0 hours, pH 3.0, 3.0 h) was 2.5%. The remaining at 3 h [2, 13] was 72.5%, the remaining at 0.5 h, 10 mg/5 ml (in vitro; [14]) was 21.4% and the remaining at 0.5 h, 10 mg/5 ml (in vitro; [15]) was 41.7%. The “Pentadecapeptide content decrement (rel. %) in gastric juice at pH = 2.0, 0 hours” value [3] was 100 rel. %, the “Pentadecapeptide content decrement (rel. %) in gastric juice at pH = 2.0, 1.5 hours” value [3] was 4.75 rel. % and the “Pentadecapeptide content decrement (rel. %) in gastric juice at pH = 2.0, 2.5 hours” value [3] was 2.1 rel. %. The “Pentadecapeptide content decrement (rel. %) in gastric juice at pH = 3.0, 0 hours” value [3] was 100 rel. %, the “Pentadecapeptide content decrement (rel. %) in gastric juice at pH = 4.0, 0 hours” value ([3]; pH 4.0) was 100 rel. % and the “Pentadecapeptide content decrement (rel. %) in gastric juice at pH = 4.0, 6 hours” value ([3]; pH 4.0) was 48.8 rel. %. For the same molecule, the “Pentadecapeptide content decrement (rel. %) in gastric juice at pH = 4.0, 7 hours” value ([3]; pH 4.0) was 44.6 rel. % and the “Pentadecapeptide content decrement (rel. %) in gastric juice at pH = 4.0, 8 hours” value ([3]; pH 4.0) was 38.0 rel. %.

For H-GEPPPGKPADDAGLV-OH [Bepecin], the Coagulation parameters [4] was “does not affect the coagulation parameters by itself”.

For `CN(C)CCCN1c2ccccc2CCc2ccc(Cl)cc21` [clomipramine], the “Effect on anaphylactoid reactions” value [5] was “only poorly effective or even ineffective”.

In the case of Bepecin L-Lysine Salt (1:3) [Lys-BPC], the “Pentadecapeptide content decrement in standing at 50° C. and relat. humidity 65%: 0 day” value ([6]; 0 day) is reported as 99.47%, the “Pentadecapeptide content decrement in standing at 50° C. and relat. humidity 65%: 10 days” value ([6]; 10 days) is reported as 99.24% and the “Pentadecapeptide content decrement in standing at 50° C. and relat. humidity 65%: 30 days” value ([6]; 30 days) is reported as 99.27%. The “Pentadecapeptide content decrement in standing at 50° C. and relat. humidity 65%: 60 days” value [6] was 98.90%, the “Pentadecapeptide content decrement in standing at 50° C. and relat. humidity 65%: 90 days” value [6] was 99.28% and the “Pentadecapeptide content decrement in water at 50° C./time (hours): 20” value [7] was 99.40%. For the same molecule, the “Pentadecapeptide content decrement in water at 50° C./time (hours): 65” value [7] was 99.09%, the “Pentadecapeptide content decrement in water at 50° C./time (hours): 148” value [7] was 99.35% and the “Pentadecapeptide content decrement in water at 50° C./time (hours): 388” value [7] was 99.01%. For the same molecule, the “Pentadecapeptide content decrement in water at 50° C./time (hours): start/0” value [7] was 99.07%.

With “GEPPPGKPADDAGLV [Arg-BPC, bepecin L-arginine salt (1:2)]” the “Stability of aqueous solution under ultraviolet light” value [8] was “stable”, the “Pentadecapeptide content decrement in standing at 50° C. and relat. humidity 65%: 60 days” value [6] was 98.96% and the “Pentadecapeptide content decrement in standing at 50° C. and relat. humidity 65%: 90 days” value [6] was 99.07%. For the same molecule, the “Pentadecapeptide content decrement in water at 100° C. - 1 hour: after 1 hour” value ([9]; after 1 hour) was 99.08% (unchanged!), the “Pentadecapeptide content decrement in water at 100° C. - 1 hour: start” value ([9]; start) was 99.05% and the “Pentadecapeptide content decrement in water at 50° C./time (hours): 20” value [7] was 98.97%. For the same molecule, the “Pentadecapeptide content decrement in water at 50° C./time (hours): 65” value [7] was 99.04%, the “Pentadecapeptide content decrement in water at 50° C./time (hours): 148” value [7] was 99.10% and the “Pentadecapeptide content decrement in water at 50° C./time (hours): 388” value [7] was 99.01%. The pH ([7]; aqueous salt solution 1 g/100 ml) was 7.35, the “Pentadecapeptide content decrement in water at 50° C./time (hours): start/0” value [7] was 99.05% and the remaining at 0.5 h [2, 14] was 30.2%. The remaining at 0.5 h [2, 15] was 98.1%, the remaining at 1 h ([2]; pH 4, Pentadecapeptide content decrement (rel. %) in gastric juice at pH = 4.0, 1 hours, pH 4.0, 1 h) was 99.9% and the remaining at 2 h ([2]; pH 4, Pentadecapeptide content decrement (rel. %) in gastric juice at pH = 4.0, 2 hours, pH 4.0, 2 h) was 99.5%. The Acute toxicity (Acute toxicity) was “no toxicity and no adverse effects”, the remaining at 1 h (in vitro; [11]) was 13.5% and the remaining at 1.5 h, 10 mg/5 ml (in vitro; pH 2, Pentadecapeptide content decrement (rel. %) in gastric juice at pH = 2.0, 1.5 hours, pH 2.0, 1.5 h) was 8.2%. For the same molecule, the remaining at 2 h (in vitro; [12]) was 6%, the remaining at 4 h, 10 mg/5 ml (in vitro; pH 3, Pentadecapeptide content decrement (rel. %) in gastric juice at pH = 3.0, 4.0 hours, pH 3.0, 4.0 h) was 87.2% and the remaining at 5 h, 10 mg/5 ml (in vitro; pH 3, Pentadecapeptide content decrement (rel. %) in gastric juice at pH = 3.0, 5.0 hours, pH 3.0, 5.0 h) was 84.9%. It also gave a remaining at 3 h, 10 mg/5 ml (in vitro; [13]) of 98.7%, a remaining at 4 h, 10 mg/5 ml (in vitro; pH 4, Pentadecapeptide content decrement (rel. %) in gastric juice at pH = 4.0, 4 hours, pH 4.0, 4 h) of 96.1% and a remaining at 5 h, 10 mg/5 ml (in vitro; pH 4, Pentadecapeptide content decrement (rel. %) in gastric juice at pH = 4.0, 5 hours, pH 4.0, 5 h) of 89.8%. For the same molecule, the “Pentadecapeptide content decrement (rel. %) in gastric juice at pH = 2.0, 0 hours” value [3] was 100 rel. %, the “Pentadecapeptide content decrement (rel. %) in gastric juice at pH = 2.0, 2.5 hours” value [3] was 4.9 rel. % and the “Pentadecapeptide content decrement (rel. %) in gastric juice at pH = 3.0, 0 hours” value [3] was 100 rel. %. For the same molecule, the “Pentadecapeptide content decrement (rel. %) in gastric juice at pH = 3.0, 3.0 hours” value ([3]; 180 min) was 90.0 rel. %, the “Pentadecapeptide content decrement (rel. %) in gastric juice at pH = 4.0, 0 hours” value ([3]; pH 4.0) was 100 rel. % and the “Pentadecapeptide content decrement (rel. %) in gastric juice at pH = 4.0, 6 hours” value ([3]; pH 4.0) was 84.6 rel. %. The “Pentadecapeptide content decrement (rel. %) in gastric juice at pH = 4.0, 7 hours” value ([3]; pH 4.0) was 73.5 rel. % and the “Pentadecapeptide content decrement (rel. %) in gastric juice at pH = 4.0, 8 hours” value ([3]; pH 4.0) was 67.2 rel. %.

With `N=C(N)NCCC[C@H](N)C(=O)O` [L-arginine] the “Collateral vessel presentation within vascular defect” value [10] was “Tiny collateral vessels were present, yet without interconnections”.

For `COC(=O)[C@@H](N)CCCNC(=N)N[N+](=O)[O-]` [L-NAME], the “Collateral vessel presentation within vascular defect” value [10] was “no collateral vessels are present”.

With GEPPPGKPADDAGLV [BPC Na salt] the “Pentadecapeptide content decrement (rel. %) in gastric juice at pH = 2.0, 0 hours” value [3] was 100 rel. %, the “Pentadecapeptide content decrement (rel. %) in gastric juice at pH = 2.0, 1.5 hours” value [3] was 4.4 rel. % and the “Pentadecapeptide content decrement (rel. %) in gastric juice at pH = 2.0, 2.5 hours” value [3] was 2.7 rel. %. The “Pentadecapeptide content decrement (rel. %) in gastric juice at pH = 3.0, 0 hours” value [3] was 100 rel. %, the “Pentadecapeptide content decrement (rel. %) in gastric juice at pH = 3.0, 3.0 hours” value ([3]; 180 min) was 40.2 rel. % and the “Pentadecapeptide content decrement (rel. %) in gastric juice at pH = 4.0, 0 hours” value ([3]; pH 4.0) was 100 rel. %. For the same molecule, the “Pentadecapeptide content decrement (rel. %) in gastric juice at pH = 4.0, 3 hours” value ([3]; pH 4.0, 3 h, 180 min) was 94.6 rel. %, the “Pentadecapeptide content decrement (rel. %) in gastric juice at pH = 4.0, 6 hours” value ([3]; pH 4.0) was 76.3 rel. % and the “Pentadecapeptide content decrement (rel. %) in gastric juice at pH = 4.0, 7 hours” value ([3]; pH 4.0) was 68.2 rel. %. For the same molecule, the “Pentadecapeptide content decrement (rel. %) in gastric juice at pH = 4.0, 8 hours” value ([3]; pH 4.0) was 60.9 rel. %.

With `CN/C(=N/CCSCc1nc[nH]c1C)NC#N` [cimetidine] the “Effect on anaphylactoid reactions” value [5] was “only poorly effective or even ineffective”.

For `Nc1nc2c(ncn2COCCO)c(=O)[nH]1` [acyclovir], the “Survival time (max.)” value (HSV-1 and HSV-2) was 115 h and the “Survival time (min.)” value (HSV-1 and HSV-2) was 105 h.
